In patent US20150306108A1, “COMPOSITIONS OF ALDH1A1 INHIBITORS AND METHODS OF USE IN TREATING CANCER” (Indiana University Research & Technology Corporation, priority 2014, published 2015):

How the values were obtained:
IGROV1 cells [1] = assay: Spheroid formation under low attachment culture conditions; assay type: cell-based, human; conditions: 7 days
Method: Ovarian cancer cell lines or primary cells were seeded at a concentration of 25,000 cells/ml in Mammocult complete medium (StemCell Technologies) and ultra-low attachment plates (Corning, Corning, N.Y.). Spheroids were trypsinized every 7 days and re-plated to generate successive generations. To observe spheroid morphology, A2780, SKOV3, IGROV1, and primary cells were cultured in a rotating bioreactor (Synthecon, Houston, Tex.) until […] compact spheroids were visible (10-30 days). They were harvested, preserved with Histochoice MB Tissue Fixative (Amresco, Solon, Ohio) for 1 hour, and embedded in Immuno-bed resin (Polysciences, Warrington, Pa.). Two micron thick sections were cut on an ultramicrotome and stained with 0.1% methylene blue/0.15% basic fuchsin in 50% methanol.
(§1) Cell viability was measured by the trypan blue (ThermoScientific) exclusion test. Cell proliferation was quantified by the MTT assay. Spheroids were counted after centrifugation at 300×g for 5 minutes. All assays were performed in four replicates. Data are presented as means±SEM.

IGROV1 cells [2] = assay: Cell viability by trypan blue exclusion; assay type: cell-based, human; conditions: 7 days
Method: as §1

## CCOC(=O)CSc1nc2c(sc3ccccc32)c(=O)n1CCCN1CCCC1 [CM037, ethyl-2-((4-oxo-3-(3-(pryrrolidin-1-yl)propyl)-3,4-dihydrobenzo[4,5]thioeno[3,2-d]pyrimidin-2-yl)thio)acetate]
IGROV1 cells [1]; 50 μM, low attachment
  formation of spheres: completely inhibited
IGROV1 cells [1]; 1, 5, 10 and 50 μM
  concentration from which dose-dependent inhibition of spheroid formation starts: ≥ 1 µM
IGROV1 cells [2]; 50 μM, trypan blue exclusion
  percentage of viable cells: significantly decreased
IGROV1 cells [2]; 1, 5, 10 and 50 μM
  concentrations giving dose-dependent decrease in cell viability: greater than 10 μM
